Source: paper PMC11720030, “Inhibitory Activity of N- and S-Functionalized Monoterpene Diols Towards Monoamine Oxidases A and B” (International Journal of Molecular Sciences, 2024)

How the values were obtained:
Type in all cases: biochemical
MAO-A [1] = biological target: T1, MAO-A (Mus musculus, UniProt Q64133); assay: residual MAO-A activity at […], fluorescent kynuramine assay in crude mouse brain mitochondria; details: read-out: MAO-A, % ± SD
T1 construct: gene Maoa
T1 sequence (Q64133 1-526): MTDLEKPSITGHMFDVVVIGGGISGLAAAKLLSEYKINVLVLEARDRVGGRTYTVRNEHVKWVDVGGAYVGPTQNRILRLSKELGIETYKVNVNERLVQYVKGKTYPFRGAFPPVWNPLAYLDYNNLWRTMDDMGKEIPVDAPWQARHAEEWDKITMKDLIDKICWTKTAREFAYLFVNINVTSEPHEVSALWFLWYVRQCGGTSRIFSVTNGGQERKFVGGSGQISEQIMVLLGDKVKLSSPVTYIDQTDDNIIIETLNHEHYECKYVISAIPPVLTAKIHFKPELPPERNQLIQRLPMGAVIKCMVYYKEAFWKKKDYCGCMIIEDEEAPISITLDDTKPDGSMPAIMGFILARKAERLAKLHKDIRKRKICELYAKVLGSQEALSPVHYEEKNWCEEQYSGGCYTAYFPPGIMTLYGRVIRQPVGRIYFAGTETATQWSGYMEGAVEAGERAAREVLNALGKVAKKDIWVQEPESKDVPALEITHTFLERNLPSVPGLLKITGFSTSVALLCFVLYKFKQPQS

MAO-B [2] = biological target: T2, MAO-B (Mus musculus, UniProt Q8BW75); assay: fluorescent kynuramine MAO activity assay in crude mouse brain mitochondria
T2 construct: gene Maob
T2 sequence (Q8BW75 2-520): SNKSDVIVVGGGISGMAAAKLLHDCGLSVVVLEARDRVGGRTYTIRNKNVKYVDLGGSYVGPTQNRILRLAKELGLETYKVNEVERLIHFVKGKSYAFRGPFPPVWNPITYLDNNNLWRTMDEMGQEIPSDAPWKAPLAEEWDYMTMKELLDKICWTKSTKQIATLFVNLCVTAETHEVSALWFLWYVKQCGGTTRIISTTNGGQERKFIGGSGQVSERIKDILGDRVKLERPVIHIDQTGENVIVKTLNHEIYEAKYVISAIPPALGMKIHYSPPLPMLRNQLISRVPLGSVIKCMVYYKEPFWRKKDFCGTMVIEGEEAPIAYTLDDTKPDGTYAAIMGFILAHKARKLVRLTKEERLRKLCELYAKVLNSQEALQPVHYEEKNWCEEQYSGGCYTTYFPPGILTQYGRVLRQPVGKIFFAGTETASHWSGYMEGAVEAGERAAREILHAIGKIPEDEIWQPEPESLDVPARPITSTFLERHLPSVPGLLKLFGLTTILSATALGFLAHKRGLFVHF

MAO-B [3] = biological target: T2, MAO-B; assay: residual MAO-B activity at […], fluorescent kynuramine assay in crude mouse brain mitochondria; details: read-out: MAO-B, % ± SD
MAO-A [4] = biological target: T1, MAO-A; assay: fluorescent kynuramine MAO activity assay in crude mouse brain mitochondria

Row | SMILES | activity at 100 µM (MAO-B [3]) [%] | IC50 (MAO-A [4]) [µM] | other results
1 | C=C(CNc1ccccc1C(C)=O)[C@@H]1CC=C(C)[C@@H](O)[C@@H]1O [compound 30, 1-(2-(2-((1S,5R,6R)-5,6-Dihydroxy-4-methylcyclohex-3-enyl)allylamino)phenyl)ethanone] | – | – | activity at 100 µM (MAO-A [1]): 57 ± 1%; IC50 (MAO-B [2]): 95 ± 5 µM
2 | C=C(CNc1ccc(C)cc1)[C@@H]1CC=C(C)[C@@H](O)[C@@H]1O [compound 27, (1R,2R,6S)-3-Methyl-6-(3-(p-tolylamino)prop-1-en-2-yl)cyclohex-3-ene-1,2-diol] | 66 ± 0.1 | – | –
3 | C=C(CNc1cccc(C(C)=O)c1)[C@@H]1CC=C(C)[C@@H](O)[C@@H]1O [compound 31, 1-(3-(2-((1S,5R,6R)-5,6-Dihydroxy-4-methylcyclohex-3-enyl)allylamino)phenyl)ethanone] | 66 ± 2 | – | –
4 | C=C(CNc1ccc(C)cc1C)[C@@H]1CC=C(C)[C@@H](O)[C@@H]1O [compound 28, (1R,2R,6S)-6-(3-(2,4-Dimethylphenylamino)prop-1-en-2-yl)-3-methylcyclohex-3-ene-1,2-diol] | – | 178 ± 44 | –
5 | C#CCN(C)CCCOc1ccc(Cl)cc1Cl [clorgiline, reference compound] | – | 0.00136 | –
